Measured values: patent publication US20200247808A1, “Heterocyclic Tec-Family Kinase Inhibitors” (GB005, Inc., priority 2015, published 2020)

Key:
human ErbB2 = biological target: T1, human ErbB2 (Homo sapiens, UniProt P04626); test: ErbB2 kinase inhibition, KinaseProfiler radiometric protein kinase assay (Eurofins); assay type: biochemical; conditions: 40 min room temperature
T1 construct: purchased Eurofins Pharma Discovery Services UK Limited (contract assay, KinaseProfiler)
Protocol: (§1) In vitro potency of selected compound was defined against human BTK, EGFR, and ErbB2 kinases using Kinase Profiler radiometric protein kinase assays performed at Eurofins Pharma Discovery Services UK Limited.
Each kinase is diluted in buffer and all compounds were prepared to 50x final assay concentration in 100% DMSO. This working stock of the compound was added to the assay well as the first component in the reaction, followed by the remaining components as detailed in the assay protocol listed above. The reaction was initiated by the addition of the MgATP mix. […] (specific activity approx. 500 cpm/pmol, concentration as required) and variable test article concentrations. […] The reaction was stopped by the addition of 3% phosphoric acid solution. 10 μL of the reaction is then spotted onto a P30 filtermat and washed three times for 5 minutes in 75 mM phosphoric acid and once in methanol prior to drying and scintillation counting. […] This abolishes kinase activity and establishes the base-line (0% kinase activity remaining). The potency of each compound was reported by estimating the EC50.

[1] = Formation of glutathione adducts (GSH reactivity, HPLC-UV); assay type: in vitro ADME; conditions: 10 mM GSH, 20 micromolar test article, pH 7.4, 37° C.
Protocol: Generation of non-specific thiol adducts can be measured by assaying reactivity of compounds with GSH. Formation of GSH adducts was measured by incubating GSH (10 mM) in 100 mM Phosphate Buffer pH 7.4 with test article at 20 micromolar final concentration. Briefly, 600 microliters of phosphate buffer pH 7.4 was added in a glass vial with 200 microliters of 100 micromolar test article in DMSO. Samples were warmed at 37° C. for 10 minutes and the reaction was initiated by the addition of 200 microliters of 50 mM reduced GSH in phosphate buffer pH 7.4 and incubated at 37° C. At various time points (0.5 min, 5 min, 15 min, 30 min, 60 min, 120 min and 180 min) 50 microliter aliquots were placed into an injection vial equipped with an insert and mixed with 50 microliters of 1% formic acid in 99% Methanol. Vials were loaded onto the HPLC injection tray and each sample was injected onto a C18 column (ACE 3 C18, 4.6×50 mm column) and both the parent and product were monitored by UV absorbance at 254 nm on an Agilent Technologies 1100 series HPLC. Peaks were integrated and the percentage of product present calculated as the percent of the total peak area on the parent and product at 60 minutes.

[2] = system: immune complex mediated vasculitis; test: Mouse Arthus (immune complex mediated acute vasculitis); assay type: in vivo, mouse (Balb/c); conditions: mice; for Suppression of immune complex mediated vasculitis: oral gavage 10 mg/kg, 1 h pre-treatment, Evan's blue extravasation at 4 h
Protocol: Formation and reaction to immune complexes is characteristic of antibody mediated autoimmune and inflammatory disease. BTK is important in signaling pathways downstream of Fc receptor stimulation which can be modeled by immune complex mediated acute vasculitis. Mouse studies were conducted as reported in Braselmann S, et al. J Pharmacol Exp Ther, 2006, 319:998-1008.
In summary, female Balb/c mice (6-7 weeks on arrival) were habituated to the animal facility for at least 4 days. On the day of the experiment, animals were pre-treated (t=minus 1 h) with compound or vehicle alone by gavage (PO). At t=0, animals were injected intravenously (IV; 0.1 mL/mouse) with saline containing chicken ovalbumin and Evan's blue (10 mg/mL of each). Ten minutes later (t=10 min), animals were anesthesized with isoflurane, the dorsal surface was shaved and rabbit anti-chicken ovalbumin antibody was then injected intradermally at one site on the right side of the animal (25 μg in 30 μL). The same amount of isotype control antibody was then injected on the left side.
The animals were then returned to their home cage and skin punches (8 mm) were collected from each injection site four hours later. The samples were placed in 1 mL formamide overnight at 80° C. (1 skin biopsy per 1 mL formamide in a glass tube). The amount of Evan's blue in the formamide solution was then assessed by spectrophotometry (630 nm) as a measure of serum extravasation into the dermis.

in vitro = conditions: human, liver microsomes
Protocol: Intrinsic liver microsomal stability was determined using cryopreserved human liver microsomes. […] Following centrifugation 100 μL of the supernatant was transferred to a 96-well plate and analyzed by LC-MS/MS using test-article specific methods. Controls included absence of microsomes or co-factors or use of heat-denatured microsomes. Intrinsic clearance was calculated using the formula: (In(% Time 0/% Time 1)/T1−T0)×Volume of incubation/protein in the incubation.

EGFR = EGFR (Homo sapiens, UniProt P00533); test: EGFR kinase inhibition, KinaseProfiler radiometric protein kinase assay (Eurofins); assay type: biochemical; design: purchased Eurofins Pharma Discovery Services UK Limited (contract assay, KinaseProfiler); conditions: 40 min room temperature
Protocol: as §1
Each kinase is diluted in buffer and all compounds were prepared to 50x final assay concentration in 100% DMSO. This working stock of the compound was added to the assay well as the first component in the reaction, followed by the remaining components as detailed in the assay protocol listed above. The reaction was initiated by the addition of the MgATP mix. […] (specific activity approx. 500 cpm/pmol, concentration as required) and variable test article concentrations. […] The reaction was stopped by the addition of 3% phosphoric acid solution. 10 μL of the reaction is then spotted onto a P30 filtermat and washed three times for 5 minutes in 75 mM phosphoric acid and once in methanol prior to drying and scintillation counting. In addition positive control wells contain all components of the reaction, except the compound of interest; however, DMSO (at a final concentration of 2%) were included in these wells to control for solvent effects as well as blank wells contain all components of the reaction, with a reference inhibitor replacing the compound of interest. This abolishes kinase activity and establishes the base-line (0% kinase activity remaining). […]

T1 sequence (P04626 23-1255): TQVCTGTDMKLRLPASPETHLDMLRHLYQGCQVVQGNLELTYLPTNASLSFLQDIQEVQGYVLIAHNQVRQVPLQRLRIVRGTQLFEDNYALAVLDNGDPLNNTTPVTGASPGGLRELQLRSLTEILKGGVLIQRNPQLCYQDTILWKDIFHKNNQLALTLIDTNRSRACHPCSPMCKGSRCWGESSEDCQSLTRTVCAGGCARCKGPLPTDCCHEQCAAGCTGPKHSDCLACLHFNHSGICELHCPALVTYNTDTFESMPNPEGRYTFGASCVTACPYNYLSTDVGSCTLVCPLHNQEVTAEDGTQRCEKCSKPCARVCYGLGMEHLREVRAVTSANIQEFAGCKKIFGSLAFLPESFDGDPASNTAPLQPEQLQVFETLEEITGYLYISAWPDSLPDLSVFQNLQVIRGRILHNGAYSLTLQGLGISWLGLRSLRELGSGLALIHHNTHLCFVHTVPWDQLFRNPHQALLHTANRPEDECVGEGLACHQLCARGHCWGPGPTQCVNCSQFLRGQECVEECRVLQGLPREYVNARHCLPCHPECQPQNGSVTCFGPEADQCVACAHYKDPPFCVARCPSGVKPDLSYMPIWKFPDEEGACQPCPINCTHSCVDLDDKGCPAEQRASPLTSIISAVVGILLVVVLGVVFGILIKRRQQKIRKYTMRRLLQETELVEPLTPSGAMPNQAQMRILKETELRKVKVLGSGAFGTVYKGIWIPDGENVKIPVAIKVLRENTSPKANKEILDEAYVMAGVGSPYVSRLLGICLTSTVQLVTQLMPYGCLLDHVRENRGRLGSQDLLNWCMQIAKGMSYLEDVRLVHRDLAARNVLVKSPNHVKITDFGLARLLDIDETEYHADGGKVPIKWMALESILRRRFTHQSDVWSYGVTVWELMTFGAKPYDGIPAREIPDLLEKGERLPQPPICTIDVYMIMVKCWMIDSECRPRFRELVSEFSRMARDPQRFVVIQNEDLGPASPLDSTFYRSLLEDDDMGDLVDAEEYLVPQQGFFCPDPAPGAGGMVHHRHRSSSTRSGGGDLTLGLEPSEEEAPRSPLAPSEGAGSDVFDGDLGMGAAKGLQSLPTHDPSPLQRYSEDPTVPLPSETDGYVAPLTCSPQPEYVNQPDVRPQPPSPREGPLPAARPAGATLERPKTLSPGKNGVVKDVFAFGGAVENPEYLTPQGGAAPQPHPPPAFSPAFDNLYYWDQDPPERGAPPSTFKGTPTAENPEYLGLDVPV
Chain of EGFR (P00533 25-1210): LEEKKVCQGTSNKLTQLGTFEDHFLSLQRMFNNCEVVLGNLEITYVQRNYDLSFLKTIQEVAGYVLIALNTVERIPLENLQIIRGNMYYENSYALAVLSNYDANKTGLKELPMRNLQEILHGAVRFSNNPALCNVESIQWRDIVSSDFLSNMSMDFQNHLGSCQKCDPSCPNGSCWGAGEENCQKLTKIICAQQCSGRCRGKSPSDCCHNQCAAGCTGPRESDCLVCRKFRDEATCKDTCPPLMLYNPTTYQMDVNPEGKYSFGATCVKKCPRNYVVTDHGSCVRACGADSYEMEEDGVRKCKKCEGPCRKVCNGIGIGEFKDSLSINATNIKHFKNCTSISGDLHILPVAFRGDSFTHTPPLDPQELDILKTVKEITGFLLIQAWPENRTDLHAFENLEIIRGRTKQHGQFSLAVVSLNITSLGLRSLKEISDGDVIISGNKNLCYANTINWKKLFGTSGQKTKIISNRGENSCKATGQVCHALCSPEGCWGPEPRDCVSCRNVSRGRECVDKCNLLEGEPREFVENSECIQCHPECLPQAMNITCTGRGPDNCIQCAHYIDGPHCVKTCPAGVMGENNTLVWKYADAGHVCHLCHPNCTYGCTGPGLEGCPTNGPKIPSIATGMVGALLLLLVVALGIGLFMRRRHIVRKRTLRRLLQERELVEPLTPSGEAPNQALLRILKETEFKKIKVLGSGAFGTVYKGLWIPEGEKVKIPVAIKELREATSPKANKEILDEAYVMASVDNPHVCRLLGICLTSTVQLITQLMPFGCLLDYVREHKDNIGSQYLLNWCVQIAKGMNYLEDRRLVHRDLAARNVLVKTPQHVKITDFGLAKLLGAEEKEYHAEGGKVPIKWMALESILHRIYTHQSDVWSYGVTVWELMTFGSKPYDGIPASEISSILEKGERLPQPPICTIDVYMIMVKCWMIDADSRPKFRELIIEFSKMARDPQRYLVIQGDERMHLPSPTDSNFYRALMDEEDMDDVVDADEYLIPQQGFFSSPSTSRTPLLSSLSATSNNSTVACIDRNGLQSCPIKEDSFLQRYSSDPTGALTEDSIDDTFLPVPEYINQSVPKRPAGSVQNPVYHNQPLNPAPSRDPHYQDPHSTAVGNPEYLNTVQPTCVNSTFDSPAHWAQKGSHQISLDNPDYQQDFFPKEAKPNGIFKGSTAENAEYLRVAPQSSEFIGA

| IC50 (human ErbB2) | GSH Reactivity GSH Conjugate at 60 minutes [1] | microsomal CLint at 1 μM (in vitro) | IC50 (EGFR) | SMILES | Effect on immune complex-mediated vasculitis (FIG. 3, in words) [2] | Suppression of immune complex mediated vasculitis [2] |
| --- | --- | --- | --- | --- | --- | --- |
| > 1 µM | 7.3 % of total Peaks | 34.9 µL/min/mg | > 1 µM | CC#CC(=O)N[C@H]1C[C@@H](n2nc(-c3ccc(Oc4ccccc4)cc3)c3c(N)ncnc32)C1 [Compound 1] | inhibit immune complex-mediated vasculitis | 87% |
| 0.097 µM | 14.2 % of total Peaks | 15.6 µL/min/mg | > 1 µM | C=CC(=O)N[C@H]1C[C@@H](n2nc(-c3ccc(Oc4ccccc4)cc3)c3c(N)ncnc32)C1 [Compound 2] | inhibit immune complex-mediated vasculitis | 94% |
